# Measured values taken from paper PMC7794397, “Curbing gastrointestinal infections by defensin fragment modifications without harming commensal microbiota” (Communications Biology, 2021).
# Where “and” joins values, the source holds several entries; their conditions need not be identical. Equal entries are not always repeated. Residues, ends and D or L forms follow the SMILES beside them. *: point of attachment. Palmitoyl = CCCCCCCCCCCCCCCC(=O)*; AEEA = NCCOCCOCC(=O)O
# What was measured:
# [1] = tested on: P. aeruginosa PAO1; assay: Treatment of established biofilms; type: cell-based; set-up: viable bacteria in biofilm: unit not given here; conditions: for viable bacteria in biofilm: 24 h old biofilm, 1 h treatment
# Experimental: Then, planktonic bacteria were removed by two wash steps with PBS. […] Afterward, adherent bacteria in each well were resuspended, and the number of viable bacteria was determined microbiologically. […] The biofilm degradation assay was performed in agreement with the original report describing this method first.
# [2] = tested on: P. aeruginosa PAO1; type: cell-based
# Experimental: (§1) After incubation at 37 °C and 150 rpm for 1–120 min, a sample of 50 µl was taken from the suspension and added to 50 µl of a 0.05% (v/v) sodium polyanethol sulfonate (Sigma-Aldrich) solution, which neutralizes remaining peptide activity, and plated on LB agar to determine the number of viable bacteria.
# [3] = tested on: S. aureus ATCC25923; type: cell-based
# Experimental: as §1
# [4] = tested on: S. Typhimurium; assay: Salmonella Typhimurium gastrointestinal infection in mice; type: in vivo, C57BL/6N mice; set-up: Body weight (% of initial): unit not given here
# Experimental: For S. Typhimurium infections experiments, age- and sex-matched mice between 10 and 14 weeks of age were used. Both- female and male mice were used in experiments. […] Afterward, mice were supplied with water and food ad libitum. 20 h after streptomycin treatment, water and food were withdrawn again, 4 h before the mice were orally infected with 10^5 CFU of S. Typhimurium in 200 μl PBS. Drinking water ad libitum was supplied immediately and food 2 h post infection (p.i.). […] Mice were weighed every day to record potential body-weight loss. All mice were euthanized by asphyxiation with CO2 at indicated time points. Intestinal tissues (small intestine, cecum, colon) were removed aseptically. To collect intestinal content, organs were flushed with PBS. Organs were opened longitudinally, cleaned thoroughly with PBS and weighted. Organs and content were homogenized in PBS using a Polytron homogenizer ([…]).
# [5] = tested on: C. rodentium strain ICC180; assay: Citrobacter rodentium gastrointestinal infection in mice; type: in vivo, C57BL/6N mice
# Experimental: Bioluminescence expressing C. rodentium strain ICC180 was used for all infection experiments. C. rodentium inocula were prepared by culturing bacteria overnight at 37 °C in LB broth with 50 µg/ml kanamycin. Subsequently, the culture was diluted 1:100 in fresh medium, and sub-cultured for 4 h at 37 °C in LB broth. Bacteria were washed twice in phosphate-buffered saline (PBS). Mice were orally inoculated with 10^8 CFU of C. rodentium diluted in 200 µl PBS. Weight of the mice was monitored and feces were collected for measurements of the pathogen burden. After 5 days post infection mice received twice 250 µg peptide solved in 100 µl PBS or only PBS orally. The following day, mice were sacrificed to assess bacterial burden in the lumen and tissues of the cecum and the colon.
# All mice were euthanized by asphyxiation with CO2 at indicated time points. Intestinal tissues (small intestine, cecum, colon) were removed aseptically. To collect intestinal content, organs were flushed with PBS. Organs were opened longitudinally, cleaned thoroughly with PBS and weighted. Organs and content were homogenized in PBS using a Polytron homogenizer (Kinemtatica). Dilutions of homogenized samples were plated on LB plates containing 50 μg/ml kanamycin to determine CFUs.
# [6] = 250 µg orally 6 and 22 h p.i., 48 h after infection, individual animals, N = 12
# [7] = two doses of 250 µg orally 5 days p.i., following day, individual animals, N = 11
smiles,measurement,setting,value
CCCCCCCCCCCCCCCC(=O)NCCOCCOCC(=O)N[C@@H](CCCNC(=N)N)C(=O)NCC(=O)N[C@@H](CCCCN)C(=O)N[C@@H](C)C(=O)N[C@@H](CCCCN)C(=O)N[C@@H](CS)C(=O)N[C@@H](CS)C(=O)N[C@@H](CCCCN)C(=O)O [Pam-3] ({Palmitoyl-AEEA}-RGKAKCCK-OH; C-terminus assumed),elimination of bacteria in biofilms (in words),"[1]; 300 µM, within 1 h, Kruskal–Wallis p = 0.0074",eliminated
same,viable bacteria in biofilm,"[1]; 9.375 µM Pam-3, experiment 1",1541667
same,viable bacteria in biofilm,"[1]; 9.375 µM Pam-3, experiment 2",3730000
same,viable bacteria in biofilm,"[1]; 9.375 µM Pam-3, experiment 3",2210000
same,viable bacteria in biofilm,"[1]; 18.75 µM Pam-3, experiment 1",800000
same,viable bacteria in biofilm,"[1]; 18.75 µM Pam-3, experiment 2",125000
same,viable bacteria in biofilm,"[1]; 18.75 µM Pam-3, experiment 3",1510000
same,viable bacteria in biofilm,"[1]; 37.5 µM Pam-3, experiment 1",70000
same,viable bacteria in biofilm,"[1]; 37.5 µM Pam-3, experiment 2",21111
same,viable bacteria in biofilm,"[1]; 37.5 µM Pam-3, experiment 3",362889
same,viable bacteria in biofilm,"[1]; 75 µM Pam-3, experiment 1",1100
same,viable bacteria in biofilm,"[1]; 75 µM Pam-3, experiment 2",67067
same,viable bacteria in biofilm,"[1]; 75 µM Pam-3, experiment 3",5525
same,viable bacteria in biofilm,"[1]; 150 µM Pam-3, experiment 1",333
same,viable bacteria in biofilm,"[1]; 150 µM Pam-3, experiment 2",433
same,viable bacteria in biofilm,"[1]; 150 µM Pam-3, experiment 3",167
same,viable bacteria in biofilm,"[1]; 300 µM Pam-3, 1 = no growth, experiment 1",1
same,viable bacteria in biofilm,"[1]; 300 µM Pam-3, 1 = no growth, experiment 2",1
same,viable bacteria in biofilm,"[1]; 300 µM Pam-3, 1 = no growth, experiment 3",1
same,time to eradication to the level of detection,[2]; 9.38 µM Pam-3,2 min
same,time to killing of more than 90% of bacteria,[2]; 9.38 µM Pam-3,≤ 1 min
same,MIC,[2]; PAO1,9.38 µM
same,time to eradication to the level of detection,[3]; 9.38 µM Pam-3,30 min
same,time to killing of more than 90% of bacteria,[3]; 9.38 µM Pam-3,≤ 15 min
same,MIC,[3]; ATCC25923,9.38 µM
same,S. Typhimurium in cecum content,[4]; [6],101000000 CFU/ml and 19300000 CFU/ml and 209000000 CFU/ml and 369000000 CFU/ml and 338000000 CFU/ml and 343000000 CFU/ml and 185000000 CFU/ml and 11700000 CFU/ml and 392000000 CFU/ml and 49300000 CFU/ml and 19200000 CFU/ml and 26400000 CFU/ml
same,S. Typhimurium in cecum tissue,[4]; [6],22792020 CFU/ml and 690476 CFU/ml and 510638 CFU/ml and 1770972 CFU/ml and 4139241 CFU/ml and 2249657 CFU/ml and 543580 CFU/ml and 809249 CFU/ml and 1834320 CFU/ml and 538642 CFU/ml and 466793 CFU/ml and 451429 CFU/ml
same,S. Typhimurium in small intestine content,[4]; [6],19170.1 CFU/ml and 3500 CFU/ml and 430000 CFU/ml and 36000 CFU/ml and 2200 CFU/ml and 10400 CFU/ml and 20600 CFU/ml and 69000 CFU/ml and 70112.2 CFU/ml and 111188 CFU/ml and 78651.7 CFU/ml and 1597222 CFU/ml
same,S. Typhimurium in small intestine tissue,[4]; [6],6700.17 CFU/ml and 99601.6 CFU/ml and 75335.4 CFU/ml and 1784.12 CFU/ml and 22916.7 CFU/ml and 29579.1 CFU/ml and 9803.92 CFU/ml and 82191.8 CFU/ml and 12841.1 CFU/ml and 8221.99 CFU/ml and 14925.4 CFU/ml and 10101 CFU/ml
same,Body weight (% of initial),"[4]; Day 0 of S. Typhimurium infection, individual animals, N = 12",100
same,Body weight (% of initial),"[4]; Day 1 of S. Typhimurium infection, 250 µg orally 6 and 22 h p.i., individual animals, N = 12",94.8627 and 88.6861 and 93.3869 and 93.4108 and 92.7247 and 90.6285 and 93.2755 and 91.8377 and 90.7373 and 93.6733 and 93.6223 and 95.0622
same,Body weight (% of initial),"[4]; Day 2 of S. Typhimurium infection, 250 µg orally 6 and 22 h p.i., individual animals, N = 12",94.2562 and 87.7476 and 94.3788 and 93.5562 and 89.4912 and 89.5623 and 93.1887 and 92.315 and 87.1434 and 90.8742 and 93.7891 and 93.0505
same,weight loss during infection (in words),[4]; Fig. 6d,tends to reduce weight loss
same,CFU of S. Typhimurium in cecum content and tissue vs PBS (in words),[4]; Mann–Whitney p < 0.0001 and p = 0.0409,significantly reduced
same,bacterial load in small intestine content vs PBS (in words),[4]; Mann–Whitney p = 0.0024,lowered the bacterial load
same,bacterial load in small intestine tissue vs PBS (in words),[4]; Mann–Whitney p = 0.8621,without affecting
same,viable Citrobacter in colon content and colon tissue vs PBS (in words),[5]; Mann–Whitney p = 0.0010 and p = 0.0104,significantly reduced
same,bacteria in cecum content and cecum tissue vs PBS (in words),[5]; Mann–Whitney p = 0.0104 and p = 0.0473,reduced the number of bacteria
same,C. rodentium in cecum content,[5]; [7],20533880 CFU/g and 455636 CFU/g and 278413400 CFU/g and 15654650 CFU/g and 366007 CFU/g and 16133443 CFU/g and 143723333 CFU/g and 2819342 CFU/g and 262402624 CFU/g and 251094891 CFU/g and 226500566 CFU/g
same,C. rodentium in cecum tissue,[5]; [7],490000 CFU/g and 307086614 CFU/g and 556897 CFU/g and 3530864 CFU/g and 21702128 CFU/g and 74039735 CFU/g and 1204147 CFU/g and 780234 CFU/g and 18903800 CFU/g and 586941 CFU/g and 191336 CFU/g
same,C. rodentium in colon content,[5]; [7],1762185 CFU/g and 60751515 CFU/g and 1789819 CFU/g and 315018315 CFU/g and 310211946 CFU/g and 1173126615 CFU/g and 2621359 CFU/g and 289220 CFU/g and 25236170 CFU/g and 708075 CFU/g and 1616071 CFU/g
same,C. rodentium in colon tissue,[5]; [7],58623.6 CFU/g and 30241621 CFU/g and 100000 CFU/g and 24432209 CFU/g and 42962357 CFU/g and 13239974 CFU/g and 61561.6 CFU/g and 13820.3 CFU/g and 2719752 CFU/g and 44329.9 CFU/g and 628386 CFU/g
